Data: patent publication US12528815B2, “5-amino-8-(4-pyridyl)-[1,2,4]triazolo[4,3-c]pyrimidin-3-one compounds for use against cancer” (Nxera Pharma UK Limited, priority 2020, dated 2026)
Like-named read-outs stand apart in the source and are kept apart here.

Key:
[1] = molecular target: T1, human adenosine A1 receptor (Homo sapiens, UniProt P30542); assay: Inhibition binding assay, human adenosine A1 receptor membranes, [3H]DPCPX; details: 1 nM [3H]DPCPX, 25° C., 1 h; IC50 converted to Ki with Cheng-Prusoff; read-out: A1 pKi (converted)
T1 construct: expressed in transfected cells; host or cells: HEK293 cells infected with BacMam (the same paragraph also labels the preparation CHO-hA1)
T1 sequence (P30542 1-326): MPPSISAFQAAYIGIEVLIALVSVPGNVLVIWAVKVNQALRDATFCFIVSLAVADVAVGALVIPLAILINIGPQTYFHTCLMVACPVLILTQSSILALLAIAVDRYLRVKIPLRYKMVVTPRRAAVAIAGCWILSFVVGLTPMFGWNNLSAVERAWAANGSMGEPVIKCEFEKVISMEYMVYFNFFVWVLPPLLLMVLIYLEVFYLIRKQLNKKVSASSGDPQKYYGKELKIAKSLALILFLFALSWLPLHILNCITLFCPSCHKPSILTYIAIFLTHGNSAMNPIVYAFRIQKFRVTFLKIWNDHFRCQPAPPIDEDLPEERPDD
Method: (§1) Inhibition binding assays were performed using 0.2 μg of membranes prepared from HEK293 cells infected with BacMam human adenosine A2A receptor or 1.4 μg of membranes prepared from HEK293 cells infected with BacMam human adenosine A1 receptor. Membranes were incubated in 50 mM Tris-HCl (HEK293-hA2A; pH 7.4) or 50 mM Tris-HCl, 100 mM NaCl, 10 mM MgCl2 (CHO-hA1; pH 7.4) in the presence of varying concentrations of test compound and 1 nM [^3H]ZM241385 (HEK293-hA2A) or [^3H]DPCPX (CHO-hA1) at 25° C. for 1 h. The assay was then terminated by rapid filtration onto GF/B grade Unifilter plates using a TomTec cell harvester, followed by 5×0.5 ml washes with ddH2O. Nonspecific binding was defined in the presence of 1 μM CGS15943 (HEK293-hA2A) or 1 μM DPCPX (CHO-hA1). Bound radioactivity was determined by liquid scintillation counting and inhibition curves were analysed using a four-parameter logistic equation. IC50 values were converted to Ki values with the Cheng-Prusoff equation using a KD value derived from saturation binding studies.

[2] = molecular target: T2, human adenosine A2A receptor (Homo sapiens, UniProt P29274); assay: Inhibition binding assay, human adenosine A2A receptor membranes, [3H]ZM241385; details: 1 nM [3H]ZM241385, HEK293-hA2A membranes, 25° C., 1 h, IC50 converted to Ki with Cheng-Prusoff
T2 construct: expressed in transfected cells; host or cells: HEK293 cells infected with BacMam
Method: as §1

T2 sequence (P29274 whole entry): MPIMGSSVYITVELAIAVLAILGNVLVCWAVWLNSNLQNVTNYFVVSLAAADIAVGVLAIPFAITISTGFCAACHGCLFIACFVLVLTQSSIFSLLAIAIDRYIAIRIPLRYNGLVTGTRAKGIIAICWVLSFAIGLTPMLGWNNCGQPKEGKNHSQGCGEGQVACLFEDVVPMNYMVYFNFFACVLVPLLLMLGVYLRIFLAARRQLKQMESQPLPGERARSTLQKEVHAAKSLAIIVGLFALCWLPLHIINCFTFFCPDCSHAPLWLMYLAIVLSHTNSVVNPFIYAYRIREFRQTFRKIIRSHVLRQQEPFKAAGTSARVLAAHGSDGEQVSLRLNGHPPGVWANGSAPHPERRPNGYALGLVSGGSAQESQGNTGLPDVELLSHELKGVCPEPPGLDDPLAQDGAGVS

| SMILES | Ki [1] | Ki ([2]; A2A pKi) | Ki ([2]; read-out: A2A pKi (converted)) |
| --- | --- | --- | --- |
| Cc1cc(-c2c(-c3ccccc3)nc(N)n3c(=O)n(CCN4C5CCCC4CC5)nc23)cc(C)n1 [Example 2-103, 5-amino-2-[2-(8-azabicyclo[3.2.1]octan-8-yl)ethyl]-8-(2,6-dimethyl-4-pyridyl)-7-phenyl-[1,2,4]triazolo[4,3-c]pyrimidin-3-one] | 1000 nM | 6.31 nM |  |
| COc1cc(-c2c(-c3ccc(F)cc3)nc(N)n3c(=O)n(CCC(F)(F)F)nc23)cc(CO)n1 [Example 2-47, 5-amino-7-(4-fluorophenyl)-8-[2-(hydroxymethyl)-6-methoxy-4-pyridyl]-2-(3,3,3-trifluoropropyl)-[1,2,4]triazolo[4,3-c]pyrimidin-3-one] | > 3980 nM |  | 1.58 nM |
| Cc1cc(-c2c(-c3cccnc3)nc(N)n3c(=O)n(CCC(F)(F)F)nc23)cc(C)n1 [Example 2-39, 5-amino-8-(2,6-dimethyl-4-pyridyl)-7-(3-pyridyl)-2-(3,3,3-trifluoropropyl)-[1,2,4]triazolo[4,3-c]pyrimidin-3-one] | > 3980 nM |  | 50.1 nM |
| Cc1cc(-c2c(-c3ccccc3)nc(N)n3c(=O)n(CCc4ccccc4)nc23)cc(N2CCC2)n1 [Example 1-90, 5-amino-8-[2-(azetidin-1-yl)-6-methyl-4-pyridyl]-7-phenyl-2-(2-phenylethyl)-[1,2,4]triazolo[4,3-c]pyrimidin-3-one] | 398 nM |  | 12.6 nM |
| Cc1cc(-c2c(-c3ccc(F)cc3)nc(N)n3c(=O)n(CCC(F)(F)F)nc23)cc(C)[n+]1[O-] [Example 2-58, 5-amino-8-(2,6-dimethyl-1-oxido-pyridin-1-ium-4-yl)-7-(4-fluorophenyl)-2-(3,3,3-trifluoropropyl)-[1,2,4]triazolo[4,3-c]pyrimidin-3-one] | 1000 nM |  | 50.1 nM |
| Cc1cc(-c2c(-c3ccccc3)nc(N)n3c(=O)n(C4Cc5ccc(N)cc5C4)nc23)cc(C)n1 (centres unmarked) [Example 1-104, 5-amino-2-(5-aminoindan-2-yl)-8-(2,6-dimethyl-4-pyridyl)-7-phenyl-[1,2,4]triazolo[4,3-c]pyrimidin-3-one] | 100 nM |  | 2 nM |
| Cc1cc(-c2c(-c3ccccc3)nc(N)n3c(=O)n(Cc4c(F)cccc4F)nc23)cc(C)n1 [Example 1-23, 5-amino-2-[(2,6-difluorophenyl)methyl]-8-(2,6-dimethyl-4-pyridyl)-7-phenyl-[1,2,4]triazolo[4,3-c]pyrimidin-3-one] | 3.16 nM |  | 0.1 nM |
| Cc1cc(-c2c(-c3ccccc3)nc(N)n3c(=O)n(CC4CCCCO4)nc23)cc(C)n1 (single isomer, unassigned) [Example 2-82-iso-1, 5-amino-8-(2,6-dimethyl-4-pyridyl)-7-phenyl-2-(tetrahydropyran-2-ylmethyl)-[1,2,4]triazolo[4,3-c]pyrimidin-3-one] | 126 nM |  | 1.58 nM |
| CCOc1nc(N)n2c(=O)n(CCC(F)(F)F)nc2c1-c1cc(C)nc(C)c1 [Example 3-3, 5-amino-8-(2,6-dimethyl-4-pyridyl)-7-ethoxy-2-(3,3,3-trifluoropropyl)-[1,2,4]triazolo[4,3-c]pyrimidin-3-one] | > 3160 nM |  | 158 nM |
| COc1ccc(Cn2nc3c(-c4cc(C)nc(C)c4)c(-c4ccccc4)nc(N)n3c2=O)nn1 [Example 1-33, 5-amino-8-(2,6-dimethyl-4-pyridyl)-2-[(6-methoxypyridazin-3-yl)methyl]-7-phenyl-[1,2,4]triazolo[4,3-c]pyrimidin-3-one] | 1000 nM |  | 25.1 nM |
| CC#Cc1nc(N)n2c(=O)n(CCC(F)(F)F)nc2c1-c1cc(C)nc(C)c1 [Example 3-7, 5-amino-8-(2,6-dimethyl-4-pyridyl)-7-prop-1-ynyl-2-(3,3,3-trifluoropropyl)-[1,2,4]triazolo[4,3-c]pyrimidin-3-one] | > 3980 nM |  | 31.6 nM |
| Cc1cc(-c2c(-c3ccco3)nc(N)n3c(=O)n(CCC(F)(F)F)nc23)cc(C)n1 [Example 2-42, 5-amino-8-(2,6-dimethyl-4-pyridyl)-7-(2-furyl)-2-(3,3,3-trifluoropropyl)-[1,2,4]triazolo[4,3-c]pyrimidin-3-one] |  |  | 1 nM |
